Reference: patent US7256007B2, “Methods of regulating cytokine signalling” (The Walter and Eliza Hall Institute of Medical Research, priority 2000, dated 2007)
Square brackets hold non-standard residues; d marks the D form. Ends that are not written are not given here. Peptide text beside a SMILES is read from it. pY = N[C@@H](Cc1ccc(OP(=O)(O)O)cc1)C(=O)O

T1: SOCS-3 (Mus musculus, UniProt O35718)
T1 construct: hexahistidine (pET15b) (N); made in house; host or cells: E. coli BL21 DE3 pLysS
T1 sequence (O35718 1-225): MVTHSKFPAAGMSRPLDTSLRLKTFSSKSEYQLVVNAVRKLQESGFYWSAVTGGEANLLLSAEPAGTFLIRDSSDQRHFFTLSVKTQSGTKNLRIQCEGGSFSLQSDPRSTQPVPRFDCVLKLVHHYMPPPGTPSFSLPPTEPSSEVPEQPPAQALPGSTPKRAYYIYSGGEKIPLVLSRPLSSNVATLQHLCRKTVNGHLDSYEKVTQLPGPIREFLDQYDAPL

T2: SOCS-3 (recombinant, His-tagged) (mouse, UniProt O35718)
T2 chain: T1 sequence (O35718 1-225)

B1: Ac(pY)STVVHSG (peptide)
chain: Ac-[pY]STVVHSG-NH2
SMILES: CC(=O)N[C@@H](Cc1ccc(OP(=O)(O)O)cc1)C(=O)N[C@@H](CO)C(=O)N[C@H](C(=O)N[C@H](C(=O)N[C@H](C(=O)N[C@@H](Cc1c[nH]cn1)C(=O)N[C@@H](CO)C(=O)NCC(N)=O)C(C)C)C(C)C)[C@@H](C)O
B2: AcE(pY)STVVHSG (peptide)
chain: Ac-E[pY]STVVHSG-NH2
SMILES: CC(=O)N[C@@H](CCC(=O)O)C(=O)N[C@@H](Cc1ccc(OP(=O)(O)O)cc1)C(=O)N[C@@H](CO)C(=O)N[C@H](C(=O)N[C@H](C(=O)N[C@H](C(=O)N[C@@H](Cc1c[nH]cn1)C(=O)N[C@@H](CO)C(=O)NCC(N)=O)C(C)C)C(C)C)[C@@H](C)O
B3: gp130 phosphopeptide V12A (peptide)
chain: STASTVE[pY]STVAHSG-NH2
modifications: N-terminus assumed
SMILES: CC(C)[C@H](NC(=O)[C@@H](NC(=O)[C@H](CO)NC(=O)[C@H](Cc1ccc(OP(=O)(O)O)cc1)NC(=O)[C@H](CCC(=O)O)NC(=O)[C@@H](NC(=O)[C@@H](NC(=O)[C@H](CO)NC(=O)[C@H](C)NC(=O)[C@@H](NC(=O)[C@@H](N)CO)[C@@H](C)O)[C@@H](C)O)C(C)C)[C@@H](C)O)C(=O)N[C@@H](C)C(=O)N[C@@H](Cc1c[nH]cn1)C(=O)N[C@@H](CO)C(=O)NCC(N)=O
B4: AcTVE(pY)STVVHSG (peptide)
chain: Ac-TVE[pY]STVVHSG-NH2
SMILES: CC(=O)N[C@H](C(=O)N[C@H](C(=O)N[C@@H](CCC(=O)O)C(=O)N[C@@H](Cc1ccc(OP(=O)(O)O)cc1)C(=O)N[C@@H](CO)C(=O)N[C@H](C(=O)N[C@H](C(=O)N[C@H](C(=O)N[C@@H](Cc1c[nH]cn1)C(=O)N[C@@H](CO)C(=O)NCC(N)=O)C(C)C)C(C)C)[C@@H](C)O)C(C)C)[C@@H](C)O
B5: AcVA(pY)STVVHSG (peptide)
chain: Ac-VA[pY]STVVHSG-NH2
SMILES: CC(=O)N[C@H](C(=O)N[C@@H](C)C(=O)N[C@@H](Cc1ccc(OP(=O)(O)O)cc1)C(=O)N[C@@H](CO)C(=O)N[C@H](C(=O)N[C@H](C(=O)N[C@H](C(=O)N[C@@H](Cc1c[nH]cn1)C(=O)N[C@@H](CO)C(=O)NCC(N)=O)C(C)C)C(C)C)[C@@H](C)O)C(C)C
B6: gp130 phosphopeptide H13A (peptide)
chain: STASTVE[pY]STVVASG-NH2
modifications: N-terminus assumed
SMILES: CC(C)[C@H](NC(=O)[C@@H](NC(=O)[C@@H](NC(=O)[C@H](CO)NC(=O)[C@H](Cc1ccc(OP(=O)(O)O)cc1)NC(=O)[C@H](CCC(=O)O)NC(=O)[C@@H](NC(=O)[C@@H](NC(=O)[C@H](CO)NC(=O)[C@H](C)NC(=O)[C@@H](NC(=O)[C@@H](N)CO)[C@@H](C)O)[C@@H](C)O)C(C)C)[C@@H](C)O)C(C)C)C(=O)N[C@@H](C)C(=O)N[C@@H](CO)C(=O)NCC(N)=O

molecular target: T1, SOCS-3; test: Competitive binding assay on the Biosensor: soluble peptide displaces SOCS-3 from immobilized gp130 (750-764) phosphopeptide; parameters: species or system murine; details: IC50, Table 2, gp130(750-764) phosphopeptide and analogues
Method: Purified protein was refolded by dialysis into PBS containing 2 mM DTT, 2 mM EDTA and 0.02% v/v Tween 20. Refolded material was purified to homogeneity by ion exchange chromatography on a Mono S column (Pharmacia).
Samples were left overnight at 4° C. prior to analysis on the Biosensor so that the rate of protein loss due to absorption was minimal through the course of the experiment.
The inventors also used this competition assay to reassess the potential solution binding of the phosphopeptides listed in FIG. 1A.

Row | Molecule | IC50 [nM]
1 | CC(C)[C@H](NC(=O)[C@@H](NC(=O)[C@@H](NC(=O)[C@H](CO)NC(=O)[C@H](Cc1ccc(OP(=O)(O)O)cc1)NC(=O)[C@H](CCC(=O)O)NC(=O)[C@@H](NC(=O)[C@@H](NC(=O)[C@H](CO)NC(=O)[C@H](C)NC(=O)[C@@H](NC(=O)[C@@H](N)CO)[C@@H](C)O)[C@@H](C)O)C(C)C)[C@@H](C)O)C(C)C)C(N)=O [STASTVE(pY)STVV] (H-STASTVE[pY]STVV-NH2; N-terminus assumed) | 1100
2 | CC(C)[C@H](NC(=O)[C@@H](NC(=O)[C@H](CO)NC(=O)[C@H](Cc1ccc(OP(=O)(O)O)cc1)NC(=O)[C@H](CCC(=O)O)NC(=O)[C@@H](NC(=O)[C@@H](NC(=O)[C@H](CO)NC(=O)[C@H](C)NC(=O)[C@@H](NC(=O)[C@@H](N)CO)[C@@H](C)O)[C@@H](C)O)C(C)C)[C@@H](C)O)C(=O)N[C@@H](C)C(=O)N[C@@H](Cc1c[nH]cn1)C(=O)N[C@@H](CO)C(=O)NCC(N)=O [STASTVE(pY)STVAHSG] (H-STASTVE[pY]STVAHSG-NH2; N-terminus assumed) | 1100

same assay, conditions: relative to gp130 (750-764) parent phosphopeptide

Row | Molecule | IC50 analogue/IC50 wild-type
3 | CC(=O)N[C@@H](CCC(=O)O)C(=O)N[C@@H](Cc1ccc(OP(=O)(O)O)cc1)C(=O)N[C@@H](CO)C(=O)N[C@H](C(=O)N[C@H](C(=O)N[C@H](C(=O)N[C@@H](Cc1c[nH]cn1)C(=O)N[C@@H](CO)C(=O)NCC(N)=O)C(C)C)C(C)C)[C@@H](C)O [AcE(pY)STVVHSG] (Ac-E[pY]STVVHSG-NH2) | 8.8
4 | CC(C)[C@H](NC(=O)[C@@H](NC(=O)[C@@H](NC(=O)[C@H](CO)NC(=O)[C@H](Cc1ccc(OP(=O)(O)O)cc1)NC(=O)[C@H](CCC(=O)O)NC(=O)[C@@H](NC(=O)[C@@H](NC(=O)[C@H](CO)NC(=O)[C@H](C)NC(=O)[C@@H](NC(=O)[C@@H](N)CO)[C@@H](C)O)[C@@H](C)O)C(C)C)[C@@H](C)O)C(C)C)C(=O)N[C@@H](Cc1c[nH]cn1)C(N)=O [STASTVE(pY)STVVH] (H-STASTVE[pY]STVVH-NH2; N-terminus assumed) | 0.70
5 | CC(=O)N[C@H](C(=O)N[C@@H](C)C(=O)N[C@@H](Cc1ccc(OP(=O)(O)O)cc1)C(=O)N[C@@H](CO)C(=O)N[C@H](C(=O)N[C@H](C(=O)N[C@H](C(=O)N[C@@H](Cc1c[nH]cn1)C(=O)N[C@@H](CO)C(=O)NCC(N)=O)C(C)C)C(C)C)[C@@H](C)O)C(C)C [AcVA(pY)STVVHSG] (Ac-VA[pY]STVVHSG-NH2) | 5.0
6 | CC(C)[C@H](NC(=O)[C@@H](NC(=O)[C@@H](NC(=O)[C@H](C)NC(=O)[C@H](Cc1ccc(OP(=O)(O)O)cc1)NC(=O)[C@H](CCC(=O)O)NC(=O)[C@@H](NC(=O)[C@@H](NC(=O)[C@H](CO)NC(=O)[C@H](C)NC(=O)[C@@H](NC(=O)[C@@H](N)CO)[C@@H](C)O)[C@@H](C)O)C(C)C)[C@@H](C)O)C(C)C)C(=O)N[C@@H](Cc1c[nH]cn1)C(=O)N[C@@H](CO)C(=O)NCC(N)=O [STASTVE(pY)ATVVHSG] (H-STASTVE[pY]ATVVHSG-NH2; N-terminus assumed) | 0.65
7 | CC(C)[C@H](NC(=O)[C@@H](NC(=O)[C@@H](NC(=O)[C@H](CO)NC(=O)[C@H](Cc1ccc(OP(=O)(O)O)cc1)NC(=O)[C@H](CCC(=O)O)NC(=O)[C@@H](NC(=O)[C@@H](NC(=O)[C@H](CO)NC(=O)[C@H](C)NC(=O)[C@@H](NC(=O)[C@@H](N)CO)[C@@H](C)O)[C@@H](C)O)C(C)C)[C@@H](C)O)C(C)C)C(=O)N[C@@H](C)C(=O)N[C@@H](CO)C(=O)NCC(N)=O [STASTVE(pY)STVVASG] (H-STASTVE[pY]STVVASG-NH2; N-terminus assumed) | 7.0
8 | CC(=O)N[C@@H](Cc1ccc(OP(=O)(O)O)cc1)C(=O)N[C@@H](CO)C(=O)N[C@H](C(=O)N[C@H](C(=O)N[C@H](C(=O)N[C@@H](Cc1c[nH]cn1)C(=O)N[C@@H](CO)C(=O)NCC(N)=O)C(C)C)C(C)C)[C@@H](C)O [Ac(pY)STVVHSG] (Ac-[pY]STVVHSG-NH2) | 87
9 | CC(C)[C@H](NC(=O)[C@H](C)NC(=O)[C@@H](NC(=O)[C@H](CO)NC(=O)[C@H](Cc1ccc(OP(=O)(O)O)cc1)NC(=O)[C@H](CCC(=O)O)NC(=O)[C@@H](NC(=O)[C@@H](NC(=O)[C@H](CO)NC(=O)[C@H](C)NC(=O)[C@@H](NC(=O)[C@@H](N)CO)[C@@H](C)O)[C@@H](C)O)C(C)C)[C@@H](C)O)C(=O)N[C@@H](Cc1c[nH]cn1)C(=O)N[C@@H](CO)C(=O)NCC(N)=O [STASTVE(pY)STAVHSG] (H-STASTVE[pY]STAVHSG-NH2; N-terminus assumed) | 31
10 | CC(=O)N[C@H](C(=O)N[C@H](C(=O)N[C@@H](CCC(=O)O)C(=O)N[C@@H](Cc1ccc(OP(=O)(O)O)cc1)C(=O)N[C@@H](CO)C(=O)N[C@H](C(=O)N[C@H](C(=O)N[C@H](C(=O)N[C@@H](Cc1c[nH]cn1)C(=O)N[C@@H](CO)C(=O)NCC(N)=O)C(C)C)C(C)C)[C@@H](C)O)C(C)C)[C@@H](C)O [AcTVE(pY)STVVHSG] | 1.1
11 | CC(C)[C@H](NC(=O)[C@@H](NC(=O)[C@@H](NC(=O)[C@H](CO)NC(=O)[C@H](Cc1ccc(OP(=O)(O)O)cc1)NC(=O)[C@H](CCC(=O)O)NC(=O)[C@@H](NC(=O)[C@@H](NC(=O)[C@H](CO)NC(=O)[C@H](C)NC(=O)[C@@H](NC(=O)[C@@H](N)CO)[C@@H](C)O)[C@@H](C)O)C(C)C)[C@@H](C)O)C(C)C)C(N)=O [STASTVE(pY)STVV] (H-STASTVE[pY]STVV-NH2; N-terminus assumed) | 10
12 | CC(C)[C@H](NC(=O)[C@@H](NC(=O)[C@H](CO)NC(=O)[C@H](Cc1ccc(OP(=O)(O)O)cc1)NC(=O)[C@H](CCC(=O)O)NC(=O)[C@@H](NC(=O)[C@@H](NC(=O)[C@H](CO)NC(=O)[C@H](C)NC(=O)[C@@H](NC(=O)[C@@H](N)CO)[C@@H](C)O)[C@@H](C)O)C(C)C)[C@@H](C)O)C(=O)N[C@@H](C)C(=O)N[C@@H](Cc1c[nH]cn1)C(=O)N[C@@H](CO)C(=O)NCC(N)=O [STASTVE(pY)STVAHSG] (H-STASTVE[pY]STVAHSG-NH2; N-terminus assumed) | 10
13 | CC(C)[C@H](NC(=O)[C@@H](NC(=O)[C@@H](NC(=O)[C@H](CO)NC(=O)[C@H](Cc1ccc(OP(=O)(O)O)cc1)NC(=O)[C@H](CCC(=O)O)NC(=O)[C@@H](NC(=O)[C@@H](NC(=O)[C@H](CO)NC(=O)[C@H](C)NC(=O)[C@@H](NC(=O)[C@@H](N)CO)[C@@H](C)O)[C@@H](C)O)C(C)C)[C@@H](C)O)C(C)C)C(=O)N[C@@H](Cc1c[nH]cn1)C(=O)N[C@@H](CO)C(N)=O [STASTVE(pY)STVVHS] | 0.55
14 | CC(=O)N[C@@H](C)C(=O)N[C@@H](CCC(=O)O)C(=O)N[C@@H](Cc1ccc(OP(=O)(O)O)cc1)C(=O)N[C@@H](CO)C(=O)N[C@H](C(=O)N[C@H](C(=O)N[C@H](C(=O)N[C@@H](Cc1c[nH]cn1)C(=O)N[C@@H](CO)C(=O)NCC(N)=O)C(C)C)C(C)C)[C@@H](C)O [AcAE(pY)STVVHSG] (Ac-AE[pY]STVVHSG-NH2) | 5.3

Molecular target: T2, SOCS-3 (recombinant, His-tagged)
Test: competition, SPR
Details: not given

Row | Molecule | IC50 [nM]
15 | B1 | 9600
16 | B2 | 970
17 | B3 | 1100
18 | B4 | 120
19 | B5 | 550
20 | B6 | 770
